Data published in patent US6040331A, “Nerve cell protective agents” (Mochida Pharmaceutical Co., Ltd., priority 1996, dated 2000).
In brackets after ≈: the same amount, converted by molar mass.

What was measured:
[1] = test system: pyramidal cells in the hippocampus CA1 region; experiment: Effectiveness in gerbil model of delayed neuronal death (damage score, 4 min ischemia); format: in vivo; conditions: carotid arteries 5 min before ischemia, score 0-4
Description: (§1) Specifically, the cervical part of a gerbil under anesthesia by halothane inhalation was incised along the median line to expose the carotid artery on both sides, which were occuluded with clips for 4 min and thereafter brought back to patency. After suturing the incised part, the anesthetization was turned off and the animal was brought back to keeping under normal condition. Three days after loading of cerebral ischemia, the gerbil was anesthetized by administering pentobarbital, fixed by transcardiac formalin perfusion and had the brain isolated. A coronary slice including the fimbria hippocampi was prepared from the isolated brain and stained with Cresyl Violet. The pyramidal cells in the hippocampus CA1 region were examined under an optical microscope and the degree of damage was rated by the following scores: 0, no damage; 1, slight damage; 2, moderate damage; 3, significant damage; 4, total damage. Each test compound was administered through the carotid arteries 5 min before ischemia.

mice (ICR) = experiment: Acute toxicity test; format: in vivo, mouse; conditions: 100 mg/kg, intraperitoneal, 7-day observation, 3 animals per group
hippocampus = conditions: Bode et al., cited from earlier work
[2] = test system: cerebral ischemic animal models; conditions: in vivo; cited from earlier work
[3] = test system: pyramidal cells in the hippocampus CA1 region; experiment: Effectiveness in gerbil model of delayed neuronal death (pyramidal cell count, 3 min ischemia); format: in vivo; conditions: carotid arteries 5 min before ischemia, ischemic control 58 ± 22, non-ischemic 249 ± 10, mean ± standard error, hydrochloride
Description: as §1, with “The action of compounds to suppress the death of neurons in vivo was studied by the method of Murase et al., Neurosci. Lett., 149, 229, 1993 which was adapted from the method of Kirino et al., Brain Res., 239, 57, 1982. Specifically,” for “Specifically,”, “3” for “4”, “Seven” for “Three”, “counted” for “examined”, “microscope.” for “microscope and the degree of damage was rated by the following scores: 0, no damage; 1, slight damage; 2, moderate damage; 3, significant damage; 4, total damage.”

[4] = test system: formalin induced pain reaction; experiment: Effectiveness in formalin induced paw pain test; format: in vivo, mouse; conditions: for Suppression of pain reaction, Second phase / Suppression of pain reaction, First phase: oral, 30 min before formalin; for Suppression of pain reaction, Second phase: from 10 min to 45 min; for Suppression of pain reaction, First phase: within 10 min after induction
Description: The effectiveness of compounds in a formalin induced pain test was studied in accordance with the method of Shibata et al., Pain, 38, 347, 1989.
Specifically, the left hind paw of a mouse was injected subcutaneously with 25 μl of a 0.5% formalin solution and the duration of time for which the mouse licked and bit the treated foot starting just after the injection was measured with a stopwatch; the measured times were integrated for every 5 minutes and recorded. The formalin induction caused a characteristic biphase pain reaction; the pain recognized within 10 min after the induction was categorized as a first-phase pain reaction and the pain recognized from 10 min to 45 min as a second-phase reaction. The test compounds were administered orally 30 min before the injection of formalin. The percent suppression of the formalin induced pain reaction by each test compound was determined by the following formula:
100×(PRcontrol-PRtest)/(PRcontrol) (%)
where PRtest is the time (sec) of pain reaction in a group administered with both formalin and the test compound and PRcontrol is the time (sec) of pain reaction in a control group subjected to formalin induction.

[5] = test system: neurons isolated from the cerebrum; experiment: Naturally occurring neuronal death suppressing action (serum-free cultivation, Crystal Violet); format: cell-based, embryonic day 16 rats; conditions: Rattus norvegicus, Neuron, 72 h; 1.0 μg/ml; serum-free, 3 days; read-out: Suppression of Naturally Occurring Neuronal Death
Description: The action of compounds to suppress the naturally occurring death of neurons was evaluated in terms of their effectiveness in suppressing or inhibiting the naturally occurring death of neurons as induced by exposing cultured neurons to serum-free cultivation conditions. An experiment was run by a method adapted from the method of Shimojo et al., Neurosci. Lett., 151, 170, 1993. Specifically, neurons were isolated from the cerebrum of embryonic day 16 rats in the usual manner, suspended in a DMEM/F12 medium containing 1% fetal bovine serum, seeded onto a polylysine-coated culture plate at a density of 5×10^4 cells per square centimeter and cultivated at 37° C. in 95% air+5% CO2. After one day of culture, the medium was replaced with a serum-free medium containing a compound to be tested and the cultivation was continued for 3 more days. Subsequently, the cells were fixed with 1% glutaraldehyde and their number was determined by calorimetric quantification using Crystal Violet (Anal. Biochem., 182, 16-19, 1989). The percent suppression of neuronal death by the test compound was determined by the following formula:
(§2) 100×(ODtest-ODcontrol)/(ODnormal-ODcontrol) (%)
where ODtest is the number of cells (absorbance) in the group of addition of test compound after serum removal, ODcontrol is the number of cells (absorbance) in a control group after serum removal, and ODnormal is the number of cells (absorbance) in a control (normal) group without serum removal.

[6] = test system: neurons isolated from the cerebrum; experiment: Veratrine-induced neuronal death suppressing action (MTT); format: cell-based, embryonic day 16 rats; conditions: Rattus norvegicus, Neuron; veratrine 0.35 mM; MTT after 24 h; probit method; read-out: IC50 (50% suppression of veratrine-induced neuronal death)
Description: The action of compounds to suppress the death of neurons induced by veratrine was evaluated in terms of their effectiveness in suppressing the neuronal death as induced by direct addition of veratrine. An experiment was run by a method adapted from the method of Powells et al., J. Pharmacol. Exp. Therapeutics, 255, 1117, 1987. Specifically, neurons were isolated from the cerebrum of embryonic day 16 rats in the usual manner, suspended in a MEM medium containing 10% fetal bovine serum, seeded onto a polylysine-coated culture plate at a density of 2.5×10^5 cells per square centimeter and cultivated at 37° C. in 95% air+5% CO2. Starting on the fifth day of cultivation, treatment was conducted with 10 μM of cytosine arabinoside for 2 days and the cultivation was continued until the 12th day, when a test was run as follows. The cells were treated with a buffer solution containing veratrine (0.35 mM) and a test compound, replaced in a serum-containing medium and cultivated for another 24 h. Subsequently, the number of viable cells was determined by calorimetric quantification using 3-(4,5-dimethylthiazol-2-yl)-2,5-diphenyltetrazolium bromide (MTT). The percent suppression of neuronal death by the test compound was determined by the following formula:
as §2
where ODtest is the number of cells (absorbance) in the group of addition of veratrine+test compound, ODcontrol is the number of cells (absorbance) in a control group of addition of veratrine, and ODnormal is the number of cells (absorbance) in a control (normal) group without addition of veratrine.
In addition, IC50 values indicating the effectiveness in achieving 50% suppression of neuronal death were calculated by the probit method on the basis of the result from more than one concentration.

cerebral infarction = experiment: Effectiveness in rat model of permanent occlusion of middle cerebral artery; format: in vivo; conditions: 10 mg/kg, tail vein, 10 min after occlusion; 24 h; control 14.7 ± 0.8; mean ± standard error; ** p < 0.01 vs control group
Excerpt: The therapeutic effect of compounds against cerebral infarction was studied in accordance with the method of Tamura et al., J. Cereb. Blood Flow Metab., 1, 53, 1981.
Specifically, a hole was made transorbitally in part of the cranial bone of a rat under anesthesia by halothane inhalation to expose the origin of the middle cerebral artery. Then, using a bipolar coagulator, the middle cerebral arteries were burnt to coagulate for permanent occlusion. The operative site was sutured and after the anesthetization was turned off, the animal was brought back to keeping under normal condition. Twenty-four hours after loading of cerebral ischemia, the rat was decapitated and the brain was isolated. The isolated brain was cut at a predetermined site to prepare five coronary slices. The infarct area of each section was rendered visible by staining with 2,3,5-triphenyltetrazolium chloride (TTC) and quantitated with an image analyzer. A test compound was administered through the tail vein 10 min after the occlusion of the middle cerebral arteries and comparison was made with a control group administered with a solvent alone.

[7] = 10 mg/kg, ** p < 0.01 vs ischemic control group
[8] = 10 mg/kg, ischemic control 2.9 ± 0.3, mean ± standard error (Table 3-1)

NC1CCc2c(-c3ccccc3)[nH]c3c(Cl)ccc1c23 (stereo not drawn) [Example 86, 5-amino-8-chloro-2-phenyl-1,3,4,5-tetrahydrobenz[cd]indole]
Score of damage to hippocampus CA1 ([1]; 5 mg/kg, ischemic control 2.9 ± 0.3, mean ± standard error (Table 3-1)): 1.8 ± 0.1 | death (acute toxicity) (mice (ICR)): no case of death was found

CCCN(CCC)C1Cc2c[nH]c3ccc(OC)c(c23)C1 (stereo not drawn) [BAY-R-1531]
effect on damage to the hippocampus of gerbils after brain ischemia (in words) (hippocampus; Stroke, 21, 1990): effective for damage to the hippocampus of gerbils after brain ischemia | dose of protective effect relative to dose altering patterns of behavior (in words) (hippocampus; serotonin-like action): the protective effect of the compound was only recognized at a by far higher dose than the one that caused altered patterns of behavior due to a serotonin-like action

O=c1[nH]c2cc(-n3ccnc3)c([N+](=O)[O-])cc2[nH]c1=O [YM90K]
effectiveness in cerebral ischemic animal models (in words) [2]: effective

Cc1ccc(-c2nc(C)c(CN3CCN(C(c4ccccc4)c4ccccc4)CC3)[nH]2)cc1 [lifarizine]
effectiveness in cerebral ischemic animal models (in words) [2]: effective

O=C(O)[C@@H]1C[C@H](CP(=O)(O)O)CCN1 (relative stereo) [selphotel]
effectiveness in cerebral ischemic animal models (in words) [2]: effective

Cl.Fc1ccccc1-c1[nH]c2cccc3c2c1CCC3N1CCOCC1 (single isomer, unassigned; (+)) [Example 247, (+)-2-(2-fluorophenyl)-5-morpholino-1,3,4,5-tetrahydrobenz[cd]indole hydrochloride]
Pyramidal cell count in hippocampus CA1 ([3]; 2.5 mg/kg): 96 ± 31 cells/mm | Pyramidal cell count in hippocampus CA1 [3, 7]: 83 ± 35 cells/mm

CN1CCN(c2ncc(-c3cc(Cl)cc(Cl)c3Cl)c(N)n2)CC1 [BW619C89]
effectiveness in cerebral ischemic animal models (in words) [2]: effective

Cl.Fc1ccccc1-c1[nH]c2cccc3c2c1CCC3N1CCOCC1 (stereo not drawn) [Example 232, 2-(2-fluorophenyl)-5-morpholino-1,3,4,5-tetrahydrobenz[cd]indole hydrochloride]
Score of damage to hippocampus CA1 ([1]; 10 mg/kg, ischemic control 3.5 ± 0.4, mean ± standard error (Table 3-2)): 2.5 ± 0.7 | Suppression of pain reaction, Second phase ([4]; 200 mg/kg): 100% | Suppression of pain reaction, First phase ([4]; 200 mg/kg): 51%

Cl.Fc1ccccc1-c1[nH]c2cccc3c2c1CCC3N1CCOCC1 (single isomer, unassigned; (-)) [Example 248, (-)-2-(2-fluorophenyl)-5-morpholino-1,3,4,5-tetrahydrobenz[cd]indole hydrochloride]
Pyramidal cell count in hippocampus CA1 ([3]; 2.5 mg/kg): 87 ± 29 cells/mm | Pyramidal cell count in hippocampus CA1 [3, 7]: 206 ± 14 cells/mm

Cl.Cn1c(-c2ccccc2)c2c3c(cccc31)C(N1CCOCC1)CC2 (stereo not drawn) [Example 237, 1-methyl-5-morpholino-2-phenyl-1,3,4,5-tetrahydrobenz[cd]indole hydrochloride]
Suppression of pain reaction, Second phase ([4]; 100 mg/kg): 97% | Suppression of pain reaction, First phase ([4]; 100 mg/kg): 63%

NC1CCc2c(-c3ccccc3)[nH]c3cccc1c23 (stereo not drawn) [Example 81, 5-amino-2-phenyl-1,3,4,5-tetrahydrobenz[cd]indole]
inhibition at 1 µg/mL [5]: 51% | IC50 [6]: 3.2 µg/mL (≈ 12.9 µM) | Score of damage to hippocampus CA1 [1, 8]: 0.1 ± 0.1 | Weight of infarction (cerebral infarction): 9.3 ± 1.5% | death (acute toxicity) (mice (ICR)): no case of death was found

C[C@]12N[C@H](Cc3ccccc31)c1ccccc12 [dizocilpine]
effectiveness in cerebral ischemic animal models (in words) [2]: effective

Cn1c(-c2ccccc2)c2c3c(cccc31)C(N)CC2 (stereo not drawn) [Example 107, 5-amino-1-methyl-2-phenyl-1,3,4,5-tetrahydrobenz[cd]indole]
IC50 [6]: 0.33 µg/mL (≈ 1.26 µM) | Score of damage to hippocampus CA1 [1, 8]: 0.5 ± 0.5

CC(C)=CCN1CCC2(C)c3cc(O)ccc3CC1C2C (stereo not drawn) [pentazocine, reference compound]
suppression of the first-phase pain reaction ([4]; 10 mg/kg, subcutaneous): 61% | suppression of the second-phase pain reaction ([4]; 10 mg/kg, subcutaneous): 40%
